According to ChEMBL document CHEMBL4177539, “Discovery of N-((3R,4R)-4-Fluoro-1-(6-((3-methoxy-1-methyl-1H-pyrazol-4-yl)amino)-9-methyl-9H-purin-2-yl)pyrrolidine-3-yl)acrylamide (PF-06747775) through Structure-Based Drug Design: A High Affinity Irreversible Inhibitor Targeting Oncogenic EGFR Mutants with Selectivity over Wild-Type EGFR” (J Med Chem, 2017):

Columns and labels:
[1] = organism: Homo sapiens; test: Selectivity index, ratio of IC50 for wild-type EGFR autophosphorylation in human A549 cells to IC50 for EGFR T790M/L858R double mutant autophosphorylation in human H1975 cells; assay type: cell-based
[2] = physchem; conditions: octanol/water
[3] = in vitro; conditions: human, liver microsomes

| logD [2] | microsomal CLint at […], 1 µM [3] [µL/min/mg] | Structure (SMILES) | Ratio IC50 [1] |
| --- | --- | --- | --- |
| 2.5 |  | C=CC(=O)N1CC[C@@H](Nc2nc(Nc3ccc(N4CCN(C)CC4)cc3)c3ncn(C(C)C)c3n2)C1 | 13 |
| 3.5 | 81 | C=CC(=O)N[C@@H]1CN(c2nc(Nc3cn(C)nc3CC)c3ncn(C(C)C)c3n2)C[C@H]1F |  |
| 2 |  | C=CC(=O)N[C@@H]1CCN(c2nc(Nc3ccc(N4CCN(C)CC4)cc3)c3ncn(C(C)C)c3n2)C1 |  |
